Reference: patent US10201558B2, “Compositions of selenoorganic compounds and methods of use thereof” (Alltech, Inc., priority 2014, dated 2019)
Entries after “also recorded” stand apart in the source; their conditions may differ.

Experiments:
Total Tau = test: Western blot of Total Tau protein in IMR-32 cells; type: cell-based, human; settings: 150 ppb, 24 hours
Method: (§1) IMR-32 cells were seeded on 6-well plates and then treated with control and various compounds for 6 hours and 24 hours, as described above. After treatments, cells were rinsed with ice-cold PBS and lysed in ice-cold RIPA buffer containing complete proteinase and phosphatase inhibitors (Thermo-Fisher Scientific, Waltham, Mass.) on ice for 30 min Cell lysates were collected using a cell scraper and transfer pipette and then centrifuged at 12000×g for 30 min at 4° C. to remove the DNA pellet and obtain the protein extract. Protein levels in the supernatant of these cell lysates were determined using the Pierce Micro-BCA protein assay kit (Thermo Scientific-Piece Biotechnology, Rockford, Ill.) according to the manufacturer's protocol […]
(§2) Positive signals on the membrane blots were detected using Amersham's enhanced chemiluminescence (ECL) Western Blotting Prime Detection reagents (GE healthcare Lifescience, Pittsburgh, Pa.). Images of these luminescence signals on the membrane blots were captured using the LI-COR Odyssey Fc Image system (Lincoln, Nebr.). […] Protein band densities in the Western blots were determined using the Li—COR Image studio software or NIH ImageJ software, and then normalized by ACTB protein level in each sample. […]

[1] = tested on: phosphorylated Tau (pTau S396, pTau S400/T403/S404); test: Western blot of phosphorylated Tau in IMR-32 cells; type: cell-based, human; settings: 150 ppb, 24 hours
Method: (§3) IMR-32 cells were seeded on 6-well plates and then treated with control and various compounds for 6 hours and 24 hours, as described above. After treatments, cells were rinsed with ice-cold PBS and lysed in ice-cold RIPA buffer containing complete proteinase and phosphatase inhibitors (Thermo-Fisher Scientific, Waltham, Mass.) on ice for 30 min Cell lysates were collected using a cell scraper and transfer pipette and then centrifuged at 12000×g for 30 min at 4° C. to remove the DNA pellet and obtain the protein extract. Protein levels in the supernatant of these cell lysates were determined using the Pierce Micro-BCA protein assay kit (Thermo Scientific-Piece Biotechnology, Rockford, Ill.) according to the manufacturer's protocol
(§4) For Western blot analysis, five micrograms of total proteins from control (0 ppb)- and compound(s)-treated cells were subjected to SDS-PAGE gel separation and then transferred to PVDF membranes, as described previously (Reddy, Liu et al. 2008 Science). Membranes were blocked in a phosphate-buffered saline (PBS) containing 5% (w/v) of bovine serum albumin (Sigma, St. Louis, Mo.) and incubated with specific primary antibodies followed by the incubation with HRP-conjugated anti-mouse or anti-rabbit secondary antibodies (1:5000 dilution, Cell Signaling Inc.). All primary antibodies except PGC1a (Abcam, Cambridge, Mass.), G6pc (Santa Cruz, Dallas, Tex.) and Actb (Li-Cor, Lincoln, Nebr.) were purchased from Cell Signaling Inc., Beverly, Mass.
(§5) Positive signals on the membrane blots were detected using Amersham's enhanced chemiluminescence (ECL) Western Blotting Prime Detection reagents (GE healthcare Lifescience, Pittsburgh, Pa.). Images of these luminescence signals on the membrane blots were captured using the LI-COR Odyssey Fc Image system (Lincoln, Nebr.). The same membrane blot was stripped and re-blotted with another antibody as described in the GE WB ECL-prime-detection protocol (GE Healthcare Lifescience, Pittsburgh, Pa.). Protein band densities in the Western blots were determined using the Li—COR Image studio software or NIH ImageJ software, and then normalized by ACTB protein level in each sample. Data are presented as mean±SEM of three samples per each group.
To determine whether selenium Compound C, Compound D or Compound E can potentially contribute to diminished tangle formation in AD, the phosphorylation of two AD biomarkers, pTau S396 (Serine 396) and pTauS400/T403/5404 (Serine 400, Threonine 403, and Serine 404), as well as the Total Tau protein levels was assessed in IMR-32 cells. Phosphorylation of Tau at the indicated amino acid sites has been associated with destabilization of the Tau protein and the eventual formation of tangles. For this purpose, cells were treated with 150 ppb of Compound C, Compound D, or Compound E for 6 hours and 24 hours, and then subjected to Western blot analysis (see FIG. 4A). Mean±SEM, n=3.

PSEN1 = test: QRT-PCR of PSEN1 mRNA in IMR-32 cells; type: cell-based, human
Method: Human IMR-32 cells were seeded on gelatinized 6-well (6.5×10^5 cells/well) or 24-well (1.3×10^5 cells/well) plates. Cells were treated with control (0 ppb) or various compounds for 6 hours or 24 hours. Total RNA from these cells was isolated using Trizol (Invitrogen) according to the manufacturer's protocol, and then incubated with DNase I to remove any potential contaminated genomic DNA. Then RNA samples were subjected to real-time PCR analysis using the Applied-Bioscience's RT kit and predesigned Taqman probes (Invitrogen), as described previously (Lan et al EMBO J 2003). The mRNA levels of UCP1, UCP2, UCP3, SLC25A27 (UCP4), SLC25A14 (UCP5), PSEN1, Nicastrin, GSK3B, MAPK11-14, PPARG, APOE, RCAN1, RCAN1.1, G6PC, INSR, IGF1R and FOXO4 were measured. Three to six samples were analyzed in each treatment group. Data were normalized by Actin B (ACTB) or Glyceraldehyde Phosphate Dehydrogenase (GAPDH) mRNA levels in each sample and are presented as mean±SEM of 3-6 samples.
RNA samples were extracted, purified, and subjected to real-time PCR analysis using Applied-Bioscience's RT kit and Taqman probes (Invitrogen) as described previously in Example 4. Protein samples were also prepared from cell lysates and western blot analysis was performed as previously described in Example 4. Data are presented as mean±SEM of 3 protein samples and 4 RNA samples per group. The relative mRNA and protein expression levels of PSEN1 and NICASTRIN, were measured. All primary antibodies were purchased from Cell Signaling Inc., Beverly, Mass.

PSEN2 = PSEN2 expression in IMR-32 cells; type: cell-based, human
NICASTRIN = test: Western blot of NICASTRIN protein in IMR-32 cells; type: cell-based, human; settings: 150 ppb, 24 hours
Method: as §1, §2

[2] = tested on: phosphorylated FOXO4 (pFOXO4 T28); test: Western blot of phosphorylated FOXO4 in IMR-32 cells; type: cell-based, human; settings: for phosphorylation of FOXO4 (pFOXO4) levels: 6 hours; for pFOXO4 Threonine 28 (T28) levels: 24 hours
Method: as §3, §4, §5

[3] = tested on: primary fetal rat neurons; test: Cell survival of primary cortical neurons (cell counts); type: cell-based; settings: 150 ppb selenium compound(s), 24 hours; Control 100 ± 1.57; mixture: 30 ppb of the element from each compound
Method: For primary neurons, dissociated primary cortical neuron cultures were established from E-18 rat embryos as previously described (Lovell et al., Free Radic. Biol. Med. 2000; Lovell et al., Neurobiol. Aging 2001). Studies were carried out on cells 7 days in culture by switching to Locke's solution consisting of 1 mL of 154 mM NaCl, 5.6 mM KCl, 2.3 mM CaCl2, 1.0 mM MgCl2, 3.6 mM NaHCO3, 10 mM glucose, 5 mM HEPES (pH 7.2) with 10 mg/L gentamicin sulfate. Primary neurons were treated for 24 hours in Locke's solution with the indicated selenium and sulfur compounds in Table 5. Cell counts were performed to measure cell survival/toxicity.
The effects of the selenium and sulfur compounds, identified as components of water extracts of selenium-enriched yeast, on neuronal cell survival was also tested. Primary neurons isolated from fetal rat brain were incubated with chemically synthesized individual selenium and sulfur compounds that were identified as components of water extracts of selenium-enriched yeast (Table 5). In this case, the elemental concentration of each compound identified in Table 5 was 150 ppb and, where mixtures were used, the 150 ppb treatment was made up of 30 ppb of the element from each of the five compounds in question.

GSK3B = test: Western blot of total GSK3B protein in IMR-32 cells; type: cell-based, human; settings: 150 ppb, 24 hours
Method: as §1, §2

| Compound | total Tau protein level (Total Tau) | phosphorylation of Tau at 5400/T403/5404 [1] | phosphorylation of Tau at S396 [1] | ratio of total pTau at both S396 and S400/T403/S404 to total Tau proteins [1] | PSEN1 mRNA expression, dose response (PSEN1; 75 ppb and 150 ppb, 24 hours) | PSEN1 mRNA expression (PSEN1; 150 ppb, 6 hours and 24 hours) | PSEN2 expression (PSEN2) | NICASTRIN protein levels (NICASTRIN) | phosphorylation of FOXO4 (pFOXO4) levels [2] | pFOXO4 Threonine 28 (T28) levels [2] | Viable Cell Number (Mean ± SEM, n = 6) [3] | total GSK3B protein levels (GSK3B) | PSEN1 mRNA expression (PSEN1; 24 hours) |
| --- | --- | --- | --- | --- | --- | --- | --- | --- | --- | --- | --- | --- | --- |
| C[Se]C[C@H]1O[C@@H](n2cnc3c(N)ncnc32)C(O)C1O (stereo in doubt) [Compound C, 5′-deoxy-5′-methylselenoadenosine] | did not affect | significantly inhibited | not at S396 | significantly attenuated | Significant dose-dependent decreases | significantly reduced | no downregulation | significant reduction | decrease | decreased | 101.1 ± 4.22 | visibly decreased; also recorded: statistically significant decrease |  |
| C[Se]C[C@H](NC(=O)CC[C@H](N)C(=O)O)C(=O)O [Compound E, γ-L-glutamyl-Se-methyl-L-selenocysteine] | significantly down-regulated | significantly down-regulated | significantly down-regulated | trend towards reduced |  |  | no downregulation | trend towards reduced | decrease | decreased | 95.69 ± 10.53 | not observed; also recorded: no significant difference | stimulated |
